Source: ChEMBL document CHEMBL3045675, “Synthesis and structure-activity relationships of some pesticides with an alpha-amino acid function” (Biochim Biophys Acta, 1997)
pKi: −log10 of the molar value. Activity calls are given as the source filed them. No cut-off for these calls is given here.

Legend:
Vicia faba [1] = assay: Herbicidal activity against Vicia faba assessed as inhibition of 1 mM of [U-14C]theronine uptake in veins after 1 hr by autoradiographic analysis relative to untreated control; format: functional, organism-based
Vicia faba [2] = assay: Herbicidal activity against Vicia faba assessed as inhibition of 1 mM of [U-14C]theronine uptake in mesophyll after 1 hr by autoradiographic analysis relative to untreated control; format: functional, organism-based
Vicia faba [3] = assay: Herbicidal activity against Vicia faba assessed as 1 mM of L-[3H]theronine uptake in leaf at 1 mM after 1 hr by liquid scintillation counting analysis relative to untreated control; format: functional
Vicia faba [4] = assay: Herbicidal activity against Vicia faba assessed as inhibition of threonine uptake; format: functional, organism-based; conditions: read-out: Ki(app)
Vicia faba [5] = assay: Herbicidal activity against Vicia faba assessed as change in 12 mM KCl-induced depolarization of transmembrane potential difference in mesophyll cells at 2.5 mM after 1 hr by electrophysiological assay; format: functional, organism-based
Vicia faba [6] = assay: Herbicidal activity against Vicia faba assessed as change in 10 mM sucrose-induced depolarization of transmembrane potential difference in mesophyll cells at 2.5 mM after 1 hr by electrophysiological assay relative to control; format: functional, organism-based
Vicia faba [7] = assay: Herbicidal activity against Vicia faba assessed as reduction in 10 mM threonine-induced depolarization of transmembrane potential difference in mesophyll cells at 2.5 mM after 1 hr by electrophysiological assay relative to control; format: functional, organism-based
Vicia faba [8] = assay: Herbicidal activity against Vicia faba assessed as decrease in 1 mM of L-[3H]lysine uptake in leaf at pH 3.5 at 2.5 mM after 1 hr by liquid scintillation counting analysis; format: functional, organism-based
Vicia faba [9] = assay: Herbicidal activity against Vicia faba assessed as inhibition of 1 mM of L-[3H]lysine uptake in leaf at pH 4 at 2.5 mM after 1 hr by liquid scintillation counting analysis; format: functional
Vicia faba [10] = assay: Herbicidal activity against Vicia faba assessed as inhibition of 1 mM of L-[3H]threonine uptake in leaf at pH 4 at 2.5 mM after 1 hr by liquid scintillation counting analysis; format: functional
Vicia faba [11] = assay: Herbicidal activity against Vicia faba assessed as inhibition of 1 mM of L-[3H]glutamate uptake in leaf at pH 4 at 2.5 mM after 1 hr by liquid scintillation counting analysis; format: functional
Vicia faba [12] = assay: Herbicidal activity against Vicia faba assessed as decrease in 1 mM of L-[3H]lysine uptake in leaf at pH 8 at 2.5 mM after 1 hr by liquid scintillation counting analysis; format: functional, organism-based
Vicia faba [13] = assay: Herbicidal activity against Vicia faba assessed as decrease in 1 mM of L-[3H]glutamate uptake in leaf at pH 8 at 2.5 mM after 1 hr by liquid scintillation counting analysis; format: functional, organism-based
[14] = Solubility in hydrochloric acid; format: physicochemical
[15] = Solubility in organic solvents; format: physicochemical
[16] = Solubility in water; format: physicochemical; conditions: buffer
Vicia faba [17] = assay: Herbicidal activity against Vicia faba assessed as 1 mM of L-[3H]lysine uptake in leaf at 1 mM after 1 hr by liquid scintillation counting analysis relative to untreated control; format: functional, organism-based
Vicia faba [18] = assay: Herbicidal activity against Vicia faba assessed as 1 mM of L-[3H]glutamate uptake in leaf at 1 mM after 1 hr by liquid scintillation counting analysis relative to untreated control; format: functional
Vicia faba [19] = assay: Herbicidal activity against Vicia faba assessed as 1 mM of L-[3H]theronine uptake in leaf at 20 uM after 1 hr by liquid scintillation counting analysis relative to untreated control; format: functional
Vicia faba [20] = assay: Herbicidal activity against Vicia faba assessed as 1 mM of L-[3H]theronine uptake in leaf at 10 uM after 1 hr by liquid scintillation counting analysis relative to untreated control; format: functional
Vicia faba [21] = assay: Herbicidal activity against Vicia faba assessed as 1 mM of L-[3H]theronine uptake in leaf at 5 uM after 1 hr by liquid scintillation counting analysis relative to untreated control; format: functional
Vicia faba [22] = assay: Herbicidal activity against Vicia faba assessed as inhibition of 1 mM of [3H]sucrose uptake in leaf at 1 mM after 1 hr by liquid scintillation counting analysis relative to untreated control; format: functional, organism-based
Vicia faba [23] = assay: Herbicidal activity against Vicia faba assessed as inhibition of 1 mM of L-[3H]theronine uptake in leaf at 1 mM after 1 hr by liquid scintillation counting analysis relative to untreated control; format: functional
[24] = Octanol-water partition coefficient, log KOW of the compound; format: physicochemical; conditions: read-out: log KOW
Vicia faba [25] = assay: Herbicidal activity against Vicia faba assessed as 1 mM of L-[3H]theronine uptake in leaf at 10 mM after 1 hr by liquid scintillation counting analysis relative to untreated control; format: functional
Vicia faba [26] = assay: Herbicidal activity against Vicia faba assessed as 1 mM of L-[3H]theronine uptake in leaf at 5 mM after 1 hr by liquid scintillation counting analysis relative to untreated control; format: functional
Vicia faba [27] = assay: Herbicidal activity against Vicia faba assessed as change in 12 mM KCl-induced depolarization of transmembrane potential difference in mesophyll cells at 1 mM after 1 hr by electrophysiological assay; format: functional, organism-based
Vicia faba [28] = assay: Herbicidal activity against Vicia faba assessed as change in 10 mM sucrose-induced depolarization of transmembrane potential difference in mesophyll cells at 1 mM after 1 hr by electrophysiological assay (reference value: 9.2 +/- 7.1 mV); format: functional
Vicia faba [29] = assay: Herbicidal activity against Vicia faba assessed as reduction in 10 mM threonine-induced depolarization of transmembrane potential difference in mesophyll cells at 1 mM after 1 hr by electrophysiological assay (reference value: 27.9 +/- 12.7 mV); format: functional
Vicia faba [30] = assay: Herbicidal activity against Vicia faba assessed as change in transmembrane potential difference in mesophyll cells at 1 mM after 1 hr by electrophysiological assay (reference value: - 154 +/- 13.2 mV); format: functional
Vicia faba [31] = assay: Herbicidal activity against Vicia faba assessed as inhibition of 1 mM of [U-14C]theronine loading in phloem after 1 hr by autoradiographic analysis relative to untreated control; format: functional, organism-based

Structure (SMILES): N[C@H](CCCCNC(=O)COc1ccc(Cl)cc1Cl)C(=O)O [D-LYSINE-2,4-DICHLOROPHENO-XYACETIC ACID]
- inhibition (Vicia faba [1]): inactive
- inhibition (Vicia faba [2]): inactive
- Activity (Vicia faba [3]): 74.2%

Structure (SMILES): N[C@@H](CCCCNC(=O)COc1ccc(Cl)cc1Cl)C(=O)O
- pKi (Vicia faba [4]): 3.30
- Activity (Vicia faba [5]): inactive
- Activity (Vicia faba [6]): inactive
- Activity (Vicia faba [7]): inactive
- Activity (Vicia faba [8]): inactive
- inhibition (INH) (Vicia faba [9]): 81%
- inhibition (INH) (Vicia faba [10]): 79%
- inhibition (INH) (Vicia faba [11]): 51%
- Activity (Vicia faba [12]): Active
- Activity (Vicia faba [13]): Active
- solubility [14]: soluble
- solubility [15]: Insoluble
- solubility [16]: soluble
- inhibition (Vicia faba [17]): Active
- inhibition (Vicia faba [18]): Active
- Activity (Vicia faba [19]): 80.7%
- Activity (Vicia faba [20]): 91%
- Activity (Vicia faba [21]): 91.8%
- inhibition (Vicia faba [22]): inactive
- inhibition (Vicia faba [23]): Active
- logP [24]: -0.49

Structure (SMILES): Cc1cc(Cl)ccc1OCC(=O)NCCCC[C@H](N)C(=O)O [L-LYSINE-2-METHYL-4-CHLOROROPHENOXYACETIC ACID]
- solubility [14]: soluble
- solubility [15]: Insoluble
- solubility [16]: soluble
- inhibition (Vicia faba [22]): inactive
- inhibition (Vicia faba [23]): Active
- logP [24]: -0.59

Structure (SMILES): N[C@@H](CCCCNC(=O)COc1ccccc1)C(=O)O [L-LYSINE-PHENOXYACETIC ACID]
- inhibition (Vicia faba [17]): Active
- inhibition (Vicia faba [1]): Active
- inhibition (Vicia faba [2]): Active
- inhibition (Vicia faba [22]): inactive

Structure (SMILES): N[C@@H](CCCCNC(=O)COc1ccc(Cl)cc1)C(=O)O [L-LYSINE-4-CHLOROPHENOXYACETIC ACID]
- inhibition (Vicia faba [22]): inactive

Structure (SMILES): N[C@@H](CCC(=O)O)C(=O)O [GLUTAMIC ACID]
- Activity (Vicia faba [25]): 67.2%
- Activity (Vicia faba [26]): 76.2%
- Activity (Vicia faba [3]): 96.7%

Structure (SMILES): NCCCC[C@H](N)C(=O)O [LYSINE]
- Activity (Vicia faba [25]): 104%
- Activity (Vicia faba [26]): 99.6%
- Activity (Vicia faba [3]): 97%

Structure (SMILES): CC(C)[C@H](N)C(=O)O [VALINE]
- Activity (Vicia faba [25]): 63.7%
- Activity (Vicia faba [26]): 77.4%
- Activity (Vicia faba [3]): 99.2%

Structure (SMILES): N[C@@H](CCCCNC(=O)COc1ccc([N+](=O)[O-])cc1)C(=O)O [L-LYSINE-4-NITROPHENOXYACETICACID]
- inhibition (Vicia faba [22]): inactive

Structure (SMILES): N[C@@H](CCCCNC(=O)CCCOc1ccc(Cl)cc1Cl)C(=O)O
- Activity (Vicia faba [27]): inactive
- Activity (Vicia faba [28]): 10.1 mV
- Activity (Vicia faba [29]): 10.2 mV
- Activity (Vicia faba [30]): -161.9 mV
- solubility [14]: soluble
- solubility [15]: Insoluble
- solubility [16]: soluble
- inhibition (Vicia faba [17]): Active
- inhibition (Vicia faba [18]): Active
- inhibition (Vicia faba [31]): Active
- inhibition (Vicia faba [22]): inactive
- inhibition (Vicia faba [23]): Active
- logP [24]: -0.49

Structure (SMILES): Nc1ccc(OCC(=O)NCCCC[C@H](N)C(=O)O)cc1
- solubility [14]: soluble
- solubility [15]: Insoluble
- solubility [16]: soluble
- inhibition (Vicia faba [1]): Active
- inhibition (Vicia faba [2]): Active
- inhibition (Vicia faba [22]): inactive
- inhibition (Vicia faba [23]): inactive
- logP [24]: -3
